Results reported in US12383545B1, “Treatment of migraine” (priority 2018, dated 2025).

Tests used:
Assay type in all cases: in vivo, human
[1] = system: participants with episodic migraine; assay: Study C: 40-week open-label extension, safety and tolerability of atogepant 60 mg once daily
Method: An open-label extension study for trial completers evaluated the long-term safety and tolerability of oral atogepant 60 mg daily for the prevention of migraine in participants with episodic migraine.
Participants in this trial (Study C) rolled over from the lead in trial (Study A) and were treated with atogepant 60 mg once daily for 40-weeks, with a 4-week safety follow-up period. Only safety data were collected.
Of 695 participants screened, a total of 685 participants took at least one dose of study medication and were included in the safety population. Overall, the mean age was 41.8 years. Female participants accounted for 88.2% of the Safety Population. White and Black or African American patients accounted for 84.4% and 12.6%, respectively. Mean BMI was 30.58 kg/m2.

[2] = system: participants with episodic migraine; assay: Study B: adverse events (atogepant 60 mg QD vs oral standard of care)
Method: Study B: A phase 3, multicenter, randomized, open label study was conducted to evaluate the long-term safety and tolerability of oral atogepant for the prevention of migraine in participants with episodic migraine (Study B). The study objective was to evaluate the safety and tolerability of daily treatment with atogepant 60 mg QD when administered over 52 weeks for the prevention of migraine in participants with episodic migraine.
A total of 744 participants from 106 sites were randomized in a ratio of 5:2 to the following treatment groups: atogepant 60 mg QD or oral standard of care (SOC) migraine prevention medication. The latter arm was included to contextualize safety data from the atogepant-treated participants, and efficacy measures were collected from the atogepant arm only. Efficacy measures were evaluated using the modified intent-to-treat (mITT) population and a mixed-effects model for repeated measures and included changes from baseline in monthly migraine days (MDDs), moderate/severe headache days, and acute medication use days, as well as the proportion of responders based on reductions in MMDs.
Regardless of which of these options was chosen, the participant was allowed to continue in the study. […]

[3] = system: Bilirubin Total; assay: Example 5: postbaseline hepatic laboratory parameter values of clinical interest, Bilirubin Total; details: safety population
Description: This study consisted of a 4-week screening and baseline period and a 12-week double-blind treatment period, which was followed by a 4-week safety follow-up period. Total study duration is 20-weeks.
To be randomized, eligible patients had to be 18 to 75 years of age (inclusive), have a history of migraine with or without aura for at least 1 year consistent with a diagnosis according to the International Classification of Headache Disorders criteria, 3rd edition, beta version, have experienced 4 to 14 migraine/probable migraine headache days and <15 headache days in the 28-day baseline period. Patients who had clinically significant hematologic, endocrine, cardiovascular, cerebrovascular, pulmonary, renal, hepatic, gastrointestinal, or neurologic disease were excluded from the study.
A total of 834 patients were randomized to double-blind treatment (ITT population), and 825 patients took at least 1 dose of double-blind IP (safety population). […] The primary efficacy variable was the change from baseline in mean monthly migraine/probable migraine headache days across the 12-week treatment period. The secondary efficacy variables were the change from baseline in mean monthly headache days across the 12-week treatment period, proportion of patients with at least a 50% reduction in mean monthly migraine/probable migraine headache days across the 12-week treatment period, and the change from baseline in mean monthly acute medication use days across the 12-week treatment period.

[4] = Atogepant 60 mg QD, Safety Population N = 685

## C[C@@H]1[C@H](c2c(F)ccc(F)c2F)C[C@H](NC(=O)c2cnc3c(c2)C[C@@]2(C3)C(=O)Nc3ncccc32)C(=O)N1CC(F)(F)F [atogepant]
[1]; 60 mg once daily, 40 weeks
  deaths observed: No deaths
[1]; [4]
  TEAE by Preferred Term: Corona virus infection: 15 (2.2) n (%)
  TEAE by Preferred Term: Influenza: 17 (2.5) n (%)
[1]; atogepant 60 mg once daily, 40 weeks, Safety Population N = 685
  Deaths, participants: (0.0) %
[2]; 52-week open-label, atogepant 60 mg QD or standard of care, safety population
  Death, n (%): (0.4) %
[2]; atogepant 60 mg QD
  deaths reported (considered not related to atogepant): Two
[3]; Atogepant 10 mg QD (N = 93)
  Participants with postbaseline Bilirubin Total (umol/L) >=1 * ULN, (%): (3.3) %
  Participants with postbaseline Bilirubin Total (umol/L) >=1 * ULN, n/N1: 3/92
  Participants with postbaseline Bilirubin Total (umol/L) >=1.5 * ULN, (%): (1.1) %
  Participants with postbaseline Bilirubin Total (umol/L) >=1.5 * ULN, n/N1: 1/92
  Participants with postbaseline Bilirubin Total (umol/L) >=2 * ULN, n/N1: 0
  Participants with postbaseline Bilirubin Total (umol/L) >=3 * ULN, n/N1: 0
  Participants with postbaseline Bilirubin Total (umol/L) >=5 * ULN, n/N1: 0
  Participants with postbaseline Bilirubin Total (umol/L) >=10 * ULN, n/N1: 0
  Participants with postbaseline Bilirubin Total (umol/L) >=20 * ULN, n/N1: 0
[3]; Atogepant 30 mg BID (N = 86)
  Participants with postbaseline Bilirubin Total (umol/L) >=1 * ULN, (%): (3.6) %
  Participants with postbaseline Bilirubin Total (umol/L) >=1 * ULN, n/N1: 3/84
  Participants with postbaseline Bilirubin Total (umol/L) >=1.5 * ULN, (%): (1.2) %
  Participants with postbaseline Bilirubin Total (umol/L) >=1.5 * ULN, n/N1: 1/84
  Participants with postbaseline Bilirubin Total (umol/L) >=2 * ULN, n/N1: 0
  Participants with postbaseline Bilirubin Total (umol/L) >=3 * ULN, n/N1: 0
  Participants with postbaseline Bilirubin Total (umol/L) >=5 * ULN, n/N1: 0
  Participants with postbaseline Bilirubin Total (umol/L) >=10 * ULN, n/N1: 0
  Participants with postbaseline Bilirubin Total (umol/L) >=20 * ULN, n/N1: 0
[3]; Atogepant 30 mg QD (N = 183)
  Participants with postbaseline Bilirubin Total (umol/L) >=1 * ULN, (%): (8.4) %
  Participants with postbaseline Bilirubin Total (umol/L) >=1 * ULN, n/N1: 15/179
  Participants with postbaseline Bilirubin Total (umol/L) >=1.5 * ULN, (%): (1.1) %
  Participants with postbaseline Bilirubin Total (umol/L) >=1.5 * ULN, n/N1: 2/179
  Participants with postbaseline Bilirubin Total (umol/L) >=2 * ULN, n/N1: 0
  Participants with postbaseline Bilirubin Total (umol/L) >=3 * ULN, n/N1: 0
  Participants with postbaseline Bilirubin Total (umol/L) >=5 * ULN, n/N1: 0
  Participants with postbaseline Bilirubin Total (umol/L) >=10 * ULN, n/N1: 0
  Participants with postbaseline Bilirubin Total (umol/L) >=20 * ULN, n/N1: 0
[3]; Atogepant 60 mg BID (N = 91)
  Participants with postbaseline Bilirubin Total (umol/L) >=1 * ULN, (%): (1.1) %
  Participants with postbaseline Bilirubin Total (umol/L) >=1 * ULN, n/N1: 1/88
  Participants with postbaseline Bilirubin Total (umol/L) >=1.5 * ULN, n/N1: 0
  Participants with postbaseline Bilirubin Total (umol/L) >=2 * ULN, n/N1: 0
  Participants with postbaseline Bilirubin Total (umol/L) >=3 * ULN, n/N1: 0
  Participants with postbaseline Bilirubin Total (umol/L) >=5 * ULN, n/N1: 0
  Participants with postbaseline Bilirubin Total (umol/L) >=10 * ULN, n/N1: 0
  Participants with postbaseline Bilirubin Total (umol/L) >=20 * ULN, n/N1: 0
[3]; Atogepant 60 mg QD (N = 186)
  Participants with postbaseline Bilirubin Total (umol/L) >=1 * ULN, (%): (4.4) %
  Participants with postbaseline Bilirubin Total (umol/L) >=1 * ULN, n/N1: 8/181
  Participants with postbaseline Bilirubin Total (umol/L) >=1.5 * ULN, (%): (1.1) %
  Participants with postbaseline Bilirubin Total (umol/L) >=1.5 * ULN, n/N1: 2/181
  Participants with postbaseline Bilirubin Total (umol/L) >=2 * ULN, n/N1: 0
  Participants with postbaseline Bilirubin Total (umol/L) >=3 * ULN, n/N1: 0
  Participants with postbaseline Bilirubin Total (umol/L) >=5 * ULN, n/N1: 0
  Participants with postbaseline Bilirubin Total (umol/L) >=10 * ULN, n/N1: 0
  Participants with postbaseline Bilirubin Total (umol/L) >=20 * ULN, n/N1: 0
